Experimental data taken from patent US8247377B2, “Non-steroidal glucocorticoid inhibitors and their use in treating inflammation, allergy and auto-immune conditions” (Glaxo Group Limited, priority 2006, dated 2012).

Key:
glucocorticoid receptor = target: T1, glucocorticoid receptor (Homo sapiens, UniProt P04150); assay: Glucocorticoid receptor binding assay (fluorescence polarisation); settings: competition with Alexa 555 fluorescently-labelled dexamethasone derivative, full length glucocorticoid receptor; read-out: glucocorticoid binding pIC50 (converted)
T1 construct: a partially purified full length glucocorticoid receptor
T1 sequence (P04150 1-777): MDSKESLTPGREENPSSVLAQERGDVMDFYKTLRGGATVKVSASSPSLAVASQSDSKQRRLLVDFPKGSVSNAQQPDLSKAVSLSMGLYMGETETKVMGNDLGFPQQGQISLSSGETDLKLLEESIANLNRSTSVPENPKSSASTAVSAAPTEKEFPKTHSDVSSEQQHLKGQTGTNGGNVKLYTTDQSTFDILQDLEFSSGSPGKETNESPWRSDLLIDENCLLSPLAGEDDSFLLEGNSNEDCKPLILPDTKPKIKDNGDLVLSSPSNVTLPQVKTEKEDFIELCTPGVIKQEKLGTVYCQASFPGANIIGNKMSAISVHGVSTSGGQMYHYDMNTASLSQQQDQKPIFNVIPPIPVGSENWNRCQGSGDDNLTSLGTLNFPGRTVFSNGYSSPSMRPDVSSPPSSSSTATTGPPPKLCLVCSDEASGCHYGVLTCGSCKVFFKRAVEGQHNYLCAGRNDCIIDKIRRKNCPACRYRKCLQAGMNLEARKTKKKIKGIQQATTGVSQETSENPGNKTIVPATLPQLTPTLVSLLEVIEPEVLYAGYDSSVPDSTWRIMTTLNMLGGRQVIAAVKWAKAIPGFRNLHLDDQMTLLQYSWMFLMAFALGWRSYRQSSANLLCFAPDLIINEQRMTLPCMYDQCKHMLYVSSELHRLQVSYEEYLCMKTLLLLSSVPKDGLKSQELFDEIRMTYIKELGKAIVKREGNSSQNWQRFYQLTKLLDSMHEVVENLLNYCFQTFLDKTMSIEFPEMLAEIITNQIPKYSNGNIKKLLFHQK
Summary of the method: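 Compounds in DMSO incubated with fluorescent dexamethasone and partially purified full-length GR plus stabilising buffer components, 2 hrs at room temperature in the dark. Displacement read as decrease in fluorescence polarisation; pIC50 estimated from dose-response curves.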

progesterone receptor = target: T2, progesterone receptor (Homo sapiens, UniProt P06401); assay: Assay for progesterone receptor activity (CV-1 cells, PRb-BacMam/MMTV-BacMam); format: cell-based; settings: CV-1 cells transduced with PRb-BacMam and MMTV-BacMam; read-out: pEC50 progesterone receptor activity (converted)
T2 construct: expressed in transfected cells; host or cells: CV-1 cells transduced with PRb-BacMam and MMTV-BacMam
T2 sequence (P06401 1-933): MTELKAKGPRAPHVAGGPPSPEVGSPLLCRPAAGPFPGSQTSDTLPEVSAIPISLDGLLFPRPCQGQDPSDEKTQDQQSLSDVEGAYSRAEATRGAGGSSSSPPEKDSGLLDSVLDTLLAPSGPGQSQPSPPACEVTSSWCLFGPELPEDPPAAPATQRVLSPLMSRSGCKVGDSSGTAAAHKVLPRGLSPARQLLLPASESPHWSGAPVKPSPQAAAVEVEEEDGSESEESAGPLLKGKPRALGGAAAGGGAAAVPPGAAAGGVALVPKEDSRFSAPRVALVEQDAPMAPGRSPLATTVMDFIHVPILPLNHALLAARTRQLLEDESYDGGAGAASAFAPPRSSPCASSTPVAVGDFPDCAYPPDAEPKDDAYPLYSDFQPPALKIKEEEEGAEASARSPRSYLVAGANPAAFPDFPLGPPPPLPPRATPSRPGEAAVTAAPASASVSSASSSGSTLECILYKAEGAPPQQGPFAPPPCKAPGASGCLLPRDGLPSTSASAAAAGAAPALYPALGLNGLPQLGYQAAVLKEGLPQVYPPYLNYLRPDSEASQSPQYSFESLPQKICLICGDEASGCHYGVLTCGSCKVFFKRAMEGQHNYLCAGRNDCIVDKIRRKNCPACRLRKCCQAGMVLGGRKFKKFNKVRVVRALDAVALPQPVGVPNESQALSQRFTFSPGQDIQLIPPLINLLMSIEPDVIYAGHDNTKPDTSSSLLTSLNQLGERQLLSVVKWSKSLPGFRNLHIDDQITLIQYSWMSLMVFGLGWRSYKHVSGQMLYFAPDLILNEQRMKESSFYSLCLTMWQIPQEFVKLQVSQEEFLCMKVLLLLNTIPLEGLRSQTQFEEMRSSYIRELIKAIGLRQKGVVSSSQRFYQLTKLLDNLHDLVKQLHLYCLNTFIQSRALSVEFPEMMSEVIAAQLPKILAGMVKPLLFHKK
Description: A T225 flask of CV-1 cells at a density of 80% confluency was washed with PBS, detached from the flask using 0.25% trypsin and counted using a Sysmex KX-21N. Cells were diluted in DMEM containing 10% Hyclone, 2 mM L-Glutamate and 1% Pen/Strep at 140 cells/μl and transduced with 10% PRb-BacMam and 10% MMTV-BacMam. […] of suspension cells were dispensed to each well of white Nunc 384-well plates, containing compounds at the required concentration. After 24 h 10 μl of Steadylite were added to each well of the plates. Plates were incubated in the dark for 10 min before reading them on a Viewlux reader. Dose response curves were constructed from which pEC50 values were estimated.

MMTV promoter = assay: MMTV agonist assay in A549 MMTV cells; format: cell-based; settings: Homo sapiens, A549, 6 h, >85% = full agonist, >20% and <85% = partial or efficacy selective agonist, read-out: average maximum asymptote in the MMTV agonist assay
Summary of the method: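 A549 cells stably carrying an MMTV promoter-driven renilla luciferase reporter were exposed to compound for 6 h at 37 °C in DMEM with 10% FCS and 25 mM HEPES. Luminescence read after renilla substrate addition; pEC50 and maximum asymptote estimated from dose-response curves.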

SMILES | IC50 (glucocorticoid receptor) | EC50 (progesterone receptor) | Emax (MMTV promoter)
Nc1c(C(=O)NCC(O)(CN(CCF)C(=O)c2c(Cl)cccc2Cl)C(F)(F)F)cnn1-c1ccc(F)cc1 (racemic) [Example 28 (racemic), 5-amino-N-(2-{[[(2,6-dichlorophenyl)carbonyl](2-fluoroethyl)amino]methyl}-3,3,3-trifluoro-2-hydroxypropyl)-1-(4-fluorophenyl)-1H-pyrazole-4-carboxamide] | ≤ 316 nM | > 1000 nM | > 85%
CCN(CC(O)(CNC(=O)c1cnn(-c2ccc(F)cc2)c1N)C(F)(F)F)C(=O)c1ccccc1S(C)(=O)=O (racemic) [Example 10 (racemic), 5-Amino-N-{2-[(ethyl{[2-(methylsulfonyl)phenyl]carbonyl}amino)methyl]-3,3,3-trifluoro-2-hydroxypropyl}-1-(4-fluorophenyl)-1H-pyrazole-4-carboxamide] | ≤ 316 nM | > 1000 nM | > 85%
Nc1c(C(=O)NCC(O)(CNC(=O)c2c(C(F)(F)F)cccc2C(F)(F)F)C(F)(F)F)cnn1-c1ccc(F)cc1 (racemic) [Example 15 (racemic), 5-amino-N-{2-[({[2,6-bis(trifluoromethyl)phenyl]carbonyl}amino)methyl]-3,3,3-trifluoro-2-hydroxypropyl}-1-(4-fluorophenyl)-1H-pyrazole-4-carboxamide] | ≤ 316 nM | > 1000 nM | 20 to 85%
Nc1c(C(=O)NCC(O)(CNC(=O)c2c(C(F)F)cccc2C(F)F)C(F)(F)F)cnn1-c1ccc(F)cc1 (single isomer, unassigned) [Example 43 Enantiomer 1, 5-Amino-N-{2-[({[2,6-bis(difluoromethyl)phenyl]carbonyl}amino)methyl]-3,3,3-trifluoro-2-hydroxypropyl}-1-(4-fluorophenyl)-1H-pyrazole-4-carboxamide] | ≤ 316 nM | > 1000 nM | 20 to 85%
CCN(CC(O)(CNC(=O)c1cnn(-c2cccc(F)c2)c1N)C(F)(F)F)C(=O)c1c(F)cccc1F (racemic) [Example 38 (racemic), 5-amino-N-(2-{[[(2,6-difluorophenyl)carbonyl](ethyl)amino]methyl}-3,3,3-trifluoro-2-hydroxypropyl)-1-(3-fluorophenyl)-1H-pyrazole-4-carboxamide] | ≤ 316 nM | > 1000 nM | > 85%
CCN(CC(O)(CNC(=O)c1cnn(-c2ccc(F)cc2)c1N)C(F)(F)F)C(=O)c1c(Cl)cccc1Cl (racemic) [Example 2 (racemic), 5-Amino-N-(2-{[[(2,6-dichlorophenyl)carbonyl](ethyl)amino]methyl}-3,3,3-trifluoro-2-hydroxypropyl)-1-(4-fluorophenyl)-1H-pyrazole-4-carboxamide] | ≤ 316 nM | > 1000 nM | > 85%
Nc1c(C(=O)NCC(O)(CNC(=O)c2c(Cl)cccc2Cl)C(F)(F)F)cnn1-c1ccc(F)cc1 (single isomer, unassigned) [Example 3 Enantiomer 1, 5-Amino-N-[2-({[(2,6-dichlorophenyl)carbonyl]amino}methyl)-3,3,3-trifluoro-2-hydroxypropyl]-1-(4-fluorophenyl)-1H-pyrazole-4-carboxamide] | ≤ 316 nM | > 1000 nM | 20 to 85%
CN(CC(O)(CNC(=O)c1cnn(-c2ccc(F)cc2)c1N)C(F)(F)F)C(=O)c1c(C(F)(F)F)cccc1C(F)(F)F (racemic) [Example 22 (racemic), 5-amino-N-(2-{[{[2,6-bis(trifluoromethyl)phenyl]carbonyl}(methyl)amino]methyl}-3,3,3-trifluoro-2-hydroxypropyl)-1-(4-fluorophenyl)-1H-pyrazole-4-carboxamide] | ≤ 316 nM | > 1000 nM | > 85%
CN(CC(O)(CNC(=O)c1cnn(-c2ccc(F)cc2)c1N)C(F)(F)F)C(=O)c1c(Cl)cccc1Cl (racemic) [Example 1 (racemic), 5-Amino-N-(2-{[[(2,6-dichlorophenyl)carbonyl](methyl)amino]methyl}-3,3,3-trifluoro-2-hydroxypropyl)-1-(4-fluorophenyl)-1H-pyrazole-4-carboxamide] | ≤ 316 nM | > 1000 nM | > 85%
Nc1c(C(=O)NCC(O)(CNC(=O)c2c(F)cccc2Br)C(F)(F)F)cnn1-c1ccc(F)cc1 (single isomer, unassigned) [Example 13 Enantiomer 1, 5-Amino-N-[2-({[(2-bromo-6-fluorophenyl)carbonyl]amino}methyl)-3,3,3-trifluoro-2-hydroxypropyl]-1-(4-fluorophenyl)-1H-pyrazole-4-carboxamide] | ≤ 316 nM | > 1000 nM | 20 to 85%
CCN(CC(O)(CNC(=O)c1cnn(-c2ccc(F)cc2)c1N)C(F)(F)F)C(=O)c1ccccc1S(C)(=O)=O (single isomer, unassigned) [Example 10 Enantiomer 1, 5-Amino-N-{2-[(ethyl{[2-(methylsulfonyl)phenyl]carbonyl}amino)methyl]-3,3,3-trifluoro-2-hydroxypropyl}-1-(4-fluorophenyl)-1H-pyrazole-4-carboxamide] | ≤ 316 nM | > 1000 nM | > 85%
Nc1c(C(=O)NCC(O)(CNC(=O)c2c(F)cccc2OC(F)F)C(F)(F)F)cnn1-c1ccc(F)cc1 (single isomer, unassigned) [Example 48 Enantiomer 1, 5-Amino-N-(2-{[({2-[(difluoromethyl)oxy]-6-fluorophenyl}carbonyl)amino]methyl}-3,3,3-trifluoro-2-hydroxypropyl)-1-(4-fluorophenyl)-1H-pyrazole-4-carboxamide] | ≤ 316 nM | > 1000 nM | 20 to 85%
Nc1c(C(=O)NCC(O)(CNC(=O)c2c(Cl)cccc2OC(F)F)C(F)(F)F)cnn1-c1ccc(F)cc1 (racemic) [Example 14 (racemic), 5-Amino-N-(2-{[({2-chloro-6-[(difluoromethyl)oxy]phenyl}carbonyl)amino]methyl}-3,3,3-trifluoro-2-hydroxypropyl)-1-(4-fluorophenyl)-1H-pyrazole-4-carboxamide] | ≤ 316 nM | > 1000 nM | 20 to 85%
